{"source": "PubChem BioAssay (NCI)", "test_in_all_cases": "NCI tumour cell line growth inhibition, 48 h", "key": {"786-0 renal": {"tested_on": "786-0 renal"}, "A498 renal": {"tested_on": "A498 renal"}, "A549 NSCLC": {"tested_on": "A549 NSCLC"}, "ACHN renal": {"tested_on": "ACHN renal"}, "BT-549 breast": {"tested_on": "BT-549 breast"}, "CAKI-1 renal": {"tested_on": "CAKI-1 renal"}, "CCRF-CEM leukemia": {"tested_on": "CCRF-CEM leukemia"}, "COLO 205 colon": {"tested_on": "COLO 205 colon"}, "DLD-1 colon": {"tested_on": "DLD-1 colon"}, "DMS 114 small cell lung": {"tested_on": "DMS 114 small cell lung"}, "DMS 273 small cell lung": {"tested_on": "DMS 273 small cell lung"}, "DU-145 prostate": {"tested_on": "DU-145 prostate"}, "EKVX NSCLC": {"tested_on": "EKVX NSCLC"}, "HCC-2998 colon": {"tested_on": "HCC-2998 colon"}, "HCT-116 colon": {"tested_on": "HCT-116 colon"}, "HCT-15 colon": {"tested_on": "HCT-15 colon"}, "HL-60(TB) leukemia": {"tested_on": "HL-60(TB) leukemia"}, "HOP-18 NSCLC": {"tested_on": "HOP-18 NSCLC"}, "HOP-62 NSCLC": {"tested_on": "HOP-62 NSCLC"}, "HOP-92 NSCLC": {"tested_on": "HOP-92 NSCLC"}, "HS 578T breast": {"tested_on": "HS 578T breast"}, "HT29 colon": {"tested_on": "HT29 colon"}, "IGROV1 ovarian": {"tested_on": "IGROV1 ovarian"}, "K-562 leukemia": {"tested_on": "K-562 leukemia"}, "KM12 colon": {"tested_on": "KM12 colon"}, "KM20L2 colon": {"tested_on": "KM20L2 colon"}, "LOX IMVI melanoma": {"tested_on": "LOX IMVI melanoma"}, "LXFL 529 NSCLC": {"tested_on": "LXFL 529 NSCLC"}, "M14 melanoma": {"tested_on": "M14 melanoma"}, "M19-MEL melanoma": {"tested_on": "M19-MEL melanoma"}, "MALME-3M melanoma": {"tested_on": "MALME-3M melanoma"}, "MCF7 breast": {"tested_on": "MCF7 breast"}, "MDA-MB-231 breast": {"tested_on": "MDA-MB-231 breast"}, "MDA-MB-435": {"tested_on": "MDA-MB-435"}, "MDA-N": {"tested_on": "MDA-N"}, "MOLT-4 leukemia": {"tested_on": "MOLT-4 leukemia"}, "NCI-H226 lung": {"tested_on": "NCI-H226 lung"}, "NCI-H23 lung": {"tested_on": "NCI-H23 lung"}, "NCI-H460 lung": {"tested_on": "NCI-H460 lung"}, "NCI-H522 lung": {"tested_on": "NCI-H522 lung"}, "NCI/ADR-RES ovarian": {"tested_on": "NCI/ADR-RES ovarian"}, "OVCAR-3 ovarian": {"tested_on": "OVCAR-3 ovarian"}, "OVCAR-4 ovarian": {"tested_on": "OVCAR-4 ovarian"}, "OVCAR-5 ovarian": {"tested_on": "OVCAR-5 ovarian"}, "OVCAR-8 ovarian": {"tested_on": "OVCAR-8 ovarian"}, "PC-3 prostate": {"tested_on": "PC-3 prostate"}, "RPMI-8226 leukemia": {"tested_on": "RPMI-8226 leukemia"}, "RXF 393 renal": {"tested_on": "RXF 393 renal"}, "RXF-631 renal": {"tested_on": "RXF-631 renal"}, "SF-268 CNS": {"tested_on": "SF-268 CNS"}, "SF-295 CNS": {"tested_on": "SF-295 CNS"}, "SF-539 CNS": {"tested_on": "SF-539 CNS"}, "SK-MEL-2 melanoma": {"tested_on": "SK-MEL-2 melanoma"}, "SK-MEL-28 melanoma": {"tested_on": "SK-MEL-28 melanoma"}, "SK-MEL-5 melanoma": {"tested_on": "SK-MEL-5 melanoma"}, "SK-OV-3 ovarian": {"tested_on": "SK-OV-3 ovarian"}, "SN12C renal": {"tested_on": "SN12C renal"}, "SNB-19 CNS": {"tested_on": "SNB-19 CNS"}, "SNB-75 CNS": {"tested_on": "SNB-75 CNS"}, "SNB-78 CNS": {"tested_on": "SNB-78 CNS"}, "SR leukemia": {"tested_on": "SR leukemia"}, "SW-620 colon": {"tested_on": "SW-620 colon"}, "T-47D breast": {"tested_on": "T-47D breast"}, "TK-10 renal": {"tested_on": "TK-10 renal"}, "U251 CNS": {"tested_on": "U251 CNS"}, "UACC-257 melanoma": {"tested_on": "UACC-257 melanoma"}, "UACC-62 melanoma": {"tested_on": "UACC-62 melanoma"}, "UO-31 renal": {"tested_on": "UO-31 renal"}, "XF 498 CNS": {"tested_on": "XF 498 CNS"}}, "note": "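Following 48 hours of exposure in 96-well plates, responses at five concentrations were used to interpolate endpoints linearly. TGI marks complete inhibition of growth.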"}
{"compound": "CCN(CC)CCNc1ccc2nnn3c4ccc([N+](=O)[O-])cc4c(=O)c1c23", "values": [{"measurement": "TGI", "setting": "786-0 renal", "value": 18.5, "unit": "µM"}, {"measurement": "TGI", "setting": "A498 renal", "value": 23.8, "unit": "µM"}, {"measurement": "TGI", "setting": "A549 NSCLC", "value": "> 53.2", "unit": "µM"}, {"measurement": "TGI", "setting": "ACHN renal", "value": 55.9, "unit": "µM"}, {"measurement": "TGI", "setting": "BT-549 breast", "value": "> 100", "unit": "µM"}, {"measurement": "TGI", "setting": "CAKI-1 renal", "value": 27.3, "unit": "µM"}, {"measurement": "TGI", "setting": "CCRF-CEM leukemia", "value": 44.3, "unit": "µM"}, {"measurement": "TGI", "setting": "COLO 205 colon", "value": "> 100", "unit": "µM"}, {"measurement": "TGI", "setting": "DLD-1 colon", "value": "> 70.1", "unit": "µM"}, {"measurement": "TGI", "setting": "DMS 114 small cell lung", "value": 97.3, "unit": "µM"}, {"measurement": "TGI", "setting": "DMS 273 small cell lung", "value": 23.5, "unit": "µM"}, {"measurement": "TGI", "setting": "DU-145 prostate", "value": "> 100", "unit": "µM"}, {"measurement": "TGI", "setting": "EKVX NSCLC", "value": "> 89.7", "unit": "µM"}, {"measurement": "TGI", "setting": "HCC-2998 colon", "value": "> 100", "unit": "µM"}, {"measurement": "TGI", "setting": "HCT-116 colon", "value": 19.7, "unit": "µM"}, {"measurement": "TGI", "setting": "HCT-15 colon", "value": "> 61", "unit": "µM"}, {"measurement": "TGI", "setting": "HL-60(TB) leukemia", "value": 30.2, "unit": "µM"}, {"measurement": "TGI", "setting": "HOP-18 NSCLC", "value": "> 100", "unit": "µM"}, {"measurement": "TGI", "setting": "HOP-62 NSCLC", "value": "> 71.3", "unit": "µM"}, {"measurement": "TGI", "setting": "HOP-92 NSCLC", "value": 40.6, "unit": "µM"}, {"measurement": "TGI", "setting": "HS 578T breast", "value": 73.8, "unit": "µM"}, {"measurement": "TGI", "setting": "HT29 colon", "value": "> 55.5", "unit": "µM"}, {"measurement": "TGI", "setting": "IGROV1 ovarian", "value": "> 100", "unit": "µM"}, {"measurement": "TGI", "setting": "K-562 leukemia", "value": 32.8, "unit": "µM"}, {"measurement": "TGI", "setting": "KM12 colon", "value": "> 100", "unit": "µM"}, {"measurement": "TGI", "setting": "KM20L2 colon", "value": "> 100", "unit": "µM"}, {"measurement": "TGI", "setting": "LOX IMVI melanoma", "value": 17.9, "unit": "µM"}, {"measurement": "TGI", "setting": "LXFL 529 NSCLC", "value": "> 96.1", "unit": "µM"}, {"measurement": "TGI", "setting": "M14 melanoma", "value": 49.7, "unit": "µM"}, {"measurement": "TGI", "setting": "M19-MEL melanoma", "value": "> 100", "unit": "µM"}, {"measurement": "TGI", "setting": "MALME-3M melanoma", "value": 62.9, "unit": "µM"}, {"measurement": "TGI", "setting": "MCF7 breast", "value": "> 100", "unit": "µM"}, {"measurement": "TGI", "setting": "MDA-MB-231 breast", "value": 24.4, "unit": "µM"}, {"measurement": "TGI", "setting": "MDA-MB-435", "value": "> 100", "unit": "µM"}, {"measurement": "TGI", "setting": "MDA-N", "value": "> 100", "unit": "µM"}, {"measurement": "TGI", "setting": "MOLT-4 leukemia", "value": 32, "unit": "µM"}, {"measurement": "TGI", "setting": "NCI-H226 lung", "value": 17, "unit": "µM"}, {"measurement": "TGI", "setting": "NCI-H23 lung", "value": 98.5, "unit": "µM"}, {"measurement": "TGI", "setting": "NCI-H460 lung", "value": "> 26.9", "unit": "µM"}, {"measurement": "TGI", "setting": "NCI-H522 lung", "value": "> 100", "unit": "µM"}, {"measurement": "TGI", "setting": "NCI/ADR-RES ovarian", "value": 30.7, "unit": "µM"}, {"measurement": "TGI", "setting": "OVCAR-3 ovarian", "value": "> 100", "unit": "µM"}, {"measurement": "TGI", "setting": "OVCAR-4 ovarian", "value": 48.9, "unit": "µM"}, {"measurement": "TGI", "setting": "OVCAR-5 ovarian", "value": 65.1, "unit": "µM"}, {"measurement": "TGI", "setting": "OVCAR-8 ovarian", "value": 16, "unit": "µM"}, {"measurement": "TGI", "setting": "PC-3 prostate", "value": "> 100", "unit": "µM"}, {"measurement": "TGI", "setting": "RPMI-8226 leukemia", "value": 43.1, "unit": "µM"}, {"measurement": "TGI", "setting": "RXF 393 renal", "value": 18.9, "unit": "µM"}, {"measurement": "TGI", "setting": "RXF-631 renal", "value": 28.2, "unit": "µM"}, {"measurement": "TGI", "setting": "SF-268 CNS", "value": "> 100", "unit": "µM"}, {"measurement": "TGI", "setting": "SF-295 CNS", "value": "> 78.4", "unit": "µM"}, {"measurement": "TGI", "setting": "SF-539 CNS", "value": 14.9, "unit": "µM"}, {"measurement": "TGI", "setting": "SK-MEL-2 melanoma", "value": "> 71.7", "unit": "µM"}, {"measurement": "TGI", "setting": "SK-MEL-28 melanoma", "value": 51.1, "unit": "µM"}, {"measurement": "TGI", "setting": "SK-MEL-5 melanoma", "value": 58.7, "unit": "µM"}, {"measurement": "TGI", "setting": "SK-OV-3 ovarian", "value": "> 100", "unit": "µM"}, {"measurement": "TGI", "setting": "SN12C renal", "value": "> 83.6", "unit": "µM"}, {"measurement": "TGI", "setting": "SNB-19 CNS", "value": "> 100", "unit": "µM"}, {"measurement": "TGI", "setting": "SNB-75 CNS", "value": 42, "unit": "µM"}, {"measurement": "TGI", "setting": "SNB-78 CNS", "value": 63.8, "unit": "µM"}, {"measurement": "TGI", "setting": "SR leukemia", "value": "> 33.6", "unit": "µM"}, {"measurement": "TGI", "setting": "SW-620 colon", "value": 27.6, "unit": "µM"}, {"measurement": "TGI", "setting": "T-47D breast", "value": "> 100", "unit": "µM"}, {"measurement": "TGI", "setting": "TK-10 renal", "value": "> 45", "unit": "µM"}, {"measurement": "TGI", "setting": "U251 CNS", "value": 13, "unit": "µM"}, {"measurement": "TGI", "setting": "UACC-257 melanoma", "value": "> 69.4", "unit": "µM"}, {"measurement": "TGI", "setting": "UACC-62 melanoma", "value": "> 100", "unit": "µM"}, {"measurement": "TGI", "setting": "UO-31 renal", "value": 25, "unit": "µM"}, {"measurement": "TGI", "setting": "XF 498 CNS", "value": 18.3, "unit": "µM"}]}
